# Reference: the Deep4Chem optical property database
# Test: solvent given as SMILES
smiles,measurement,setting,value
N#Cc1ccc(/C=C/c2ccc(C=C(c3ccccc3)c3ccccc3)cc2)cc1,emission maximum,in C1CCOC1,456 nm
COC(=O)c1[nH]c(-c2ccccc2)c2nnc3ccsc3c12,emission maximum,in ClCCl,478 nm
CC[N+]1(CC)CN2C(=N1)C(C(=O)O)=Cc1cc(OC)c(OC)cc12,emission maximum,in O,472 nm
CCN(CC)c1ccc2c(c1)oc(=O)c1c(C)nc3c(c(-c4ccccc4)nn3-c3ccccc3)c12,emission maximum,in ClCCl,461 nm
[O-][n+]1c(/C=C/c2ccccc2)nc(Nc2ccccc2)c2c1CCCC2,emission maximum,in ClCCl,508 nm
c1ccc(/C(=C(\c2ccccc2)c2cc(-c3ccccc3)ccc2-c2ccc(-c3ccccc3)cc2)c2cc(-c3ccccc3)ccc2-c2ccc(-c3ccccc3)cc2)cc1,emission maximum,in C1CCOC1,494 nm
COc1ccc(-c2csc(/C(C#N)=C/c3ccc(C#N)cc3)n2)cc1,emission maximum,in CC#N,561 nm
same,emission maximum,in CCO,555 nm
same,emission maximum,in CN(C)C=O,570 nm
same,emission maximum,in Cc1ccccc1,519 nm
same,emission maximum,in ClCCl,554 nm
CCCCn1c2ccc3ccc4ccccc4c3c2c2c3c(ccc4ccccc43)ccc21,emission maximum,in ClCCl,430 nm
O=c1cc2c(Br)c(O)c3cccc4ccc(o1)c2c43,emission maximum,in CC1CCCO1,484 nm
CC(C)(C)c1ccc(-c2nc3c4ccc(-c5cc6ccccc6c6ccccc56)cc4c4cc(-c5cc6ccccc6c6ccccc56)ccc4c3n2-c2ccc(C(C)(C)C)cc2)cc1,emission maximum,in C1CCOC1,388 nm
same,emission maximum,in C1COCCO1,386 nm
same,emission maximum,in CC#N,405 nm
same,emission maximum,in CCCCCC,382 nm
same,emission maximum,in CCCCOCCCC,384 nm
same,emission maximum,in CCN(CC)CC,384 nm
same,emission maximum,in CCOC(C)=O,388 nm
same,emission maximum,in CCOCC,384 nm
same,emission maximum,in CN(C)C=O,404 nm
same,emission maximum,in Cc1ccccc1,385 nm
same,emission maximum,in ClC=C(Cl)Cl,388 nm
same,emission maximum,in ClCCl,404 nm
Oc1ccc2ccccc2c1-c1nc(-c2ccccc2)c2ccccn12,emission maximum,in C1CCCCC1,407 nm
same,emission maximum,in CC#N,435 nm
same,emission maximum,in CO,433 nm
same,emission maximum,in ClCCl,467 nm
same,emission maximum,in O,440 nm
CN(C)CCCN1c2ccccc2CCc2ccccc21,emission maximum,in CC#N,348 nm
same,emission maximum,in CO,353 nm
same,emission maximum,in O,400 nm
Cc1cccc(-c2c3ccccc3c(-c3cccc(C)n3)c3ccccc23)n1,emission maximum,in ClCCl,428 nm
CCCCCCn1c2ccsc2c2sc3c(sc4c5sccc5n(CCCCCC)c43)c21,emission maximum,in ClCCl,411 nm
C(=C\c1ccnc2ccccc12)/c1c2ccccc2cc2ccccc12,emission maximum,in CC1CCCCC1,498 nm
same,emission maximum,in CC#N,530 nm
COc1cc2c(cc1-c1ccc(N(C)C)cc1)Cc1c3c(c4c(c1-2)-c1cc(OC)c(-c2ccc(N(C)C)cc2)cc1C4)C(=O)N(CCC(C)C)C3=O,emission maximum,in C1CCOC1,593 nm
CC1(C)c2ccccc2N(c2ccc(-c3cnc(C#N)nc3)cc2)c2ccccc21,emission maximum,in Cc1ccccc1,524 nm
same,emission maximum,in N#Cc1ccc2c(c1)c1ccccc1n2-c1cccc(-n2c3ccccc3c3ccccc32)c1,526 nm
CCC1=C(C)C2=Cc3c4ccccc4c4n3[B-](c3ccccc3)(Oc3ccccc3-4)[N+]2=C1C (stereo unspecified),emission maximum,in CC#N,634 nm
same,emission maximum,in CCCCCC,636 nm
same,emission maximum,in Cc1ccccc1,640 nm
same,emission maximum,in ClCCl,638 nm
Cc1cccn2c1cc1c3ccccc3nc(-c3cccs3)c12,emission maximum,in CS(C)=O,514 nm
COc1ccc(C2=C3C=CC(C)=[N+]3[B-](F)(F)n3c(C)ccc32)cc1,emission maximum,in C1CCCCC1,521 nm
same,emission maximum,in C1CCOC1,521 nm
same,emission maximum,in CC#N,517 nm
same,emission maximum,in CCOC(C)=O,518 nm
same,emission maximum,in CO,518 nm
same,emission maximum,in Cc1ccccc1,524 nm
same,emission maximum,in ClC(Cl)Cl,523 nm
C(/C=C/c1ccc(-n2c3ccccc3c3ccccc32)cc1)=C\c1ccncc1,emission maximum,in C1COCCO1,436 nm
same,emission maximum,in CC#N,492 nm
same,emission maximum,in CCCCCCC,382 nm
same,emission maximum,in CO,496 nm
